Measured values from patent US12655365B2, “Low foam cleaning compositions” (ECOLAB USA INC., priority 2020, dated 2026).
Each block holds one compound with its values, some of them ahead of it.

Key:
[1] = Foam evaluation (foam height); assay type: physicochemical; details: 1200 ppm solution in water; 120° F.; additive with quaternary ammonium compound
Experimental: The foaming properties of the quaternary ammonium compounds were evaluated and then tested for reduced foaming when traditional defoaming compounds were included. The foam height was determined with the following procedural steps: • 1. A 1200 ppm solution of the test composition was mixed in water. • 2. The foam height was measured immediately after mixing. • 3. The solution was agitated and the foam height was measured after 15 seconds. • 4. The solution was agitated and the solution was measured after another 45 seconds of agitation (60 seconds total since the solution was mixed). The temperature of the solution was at 120° F. for the duration of the test. As can been seen in FIGS. 1A and 1B, the various quaternary ammonium compounds tested provided significant foam height after mixing at after 15 seconds of agitation. The traditional defoamers had varying impacts on the foaming properties of the quaternary ammonium compounds.
The ability of the polycarboxylic acids and/or salts to control the foam of different quaternary ammonium compounds was also tested. The same procedural steps outlined above were followed. […].

[2] = test system: E. coli (ATCC 11229); assay: Antimicrobial evaluation, log reduction of microbial population; assay type: cell-based; details: pH 7, 500 ppm hard water, 120° F., about 30 seconds contact
Experimental: The quaternary ammonium compounds were tested for antimicrobial efficacy against exemplary bacteria (E. coli and S. aureus) under different pH conditions. For this evaluation, various test solutions were prepared in 500 ppm hard water at a temperature of 120° F. The microbial population was contacted with the test composition for about 30 seconds. The microbial population was measured before and after the contacting step and the difference was taken to identify the log reduction. The quaternary ammonium compounds tested, their concentrations, and the corresponding log reductions are shown below in Table 2.

reduction to the foaming of quaternary ammonium compounds [1]: did not
SMILES: CC(=O)O [acetate]

SMILES: O=C([O-])c1ccccc1.[Na+] [sodium benzoate]
reduction to the foaming of quaternary ammonium compounds [1]: did not

SMILES: O=S(=O)([O-])[O-].[Na+].[Na+] [sodium sulfate]
reduction to the foaming of quaternary ammonium compounds [1]: did not

SMILES: CCCCCCCCCC[N+](C)(C)CCCCCCCCCC.[Cl-] [Bardac 2250, didecyl dimethyl ammonium chloride]
log reduction ([2]; 30 ppm): 3.33
log reduction ([2]; 40 ppm): 5.02
log reduction ([2]; 50 ppm): 6.71
